According to patent US5880160A (priority 1995, dated 1999):

Legend:
[1] = tested on: MCF-7 (human breast); test: cells; assay type: cell-based; details: MCF-7 human breast cell line, in vitro
[2] = tested on: MCF7-ADR (resistant); test: cells; assay type: cell-based, human; details: for IC50: MCF7-ADR resistant cell line, in vitro; for MCF7-ADR/MCF7: ratio of IC50 in MCF7-ADR to IC50 in MCF-7

Question: What does the source list for CC(=O)O[C@H]1C(=O)[C@@]2(C)[C@H]([C@H](OC(=O)c3ccccc3)[C@]3(O)C[C@H](OC(=O)[C@H](O)[C@@H](NC(=O)c4ccccc4)c4ccccc4)C(C)=C1C3(C)C)[C@]1(OC(C)=O)CO[C@@H]1C[C@@H]2O [Taxol, reference compound]?
Answer: IC50 ([1]; MCF7): 6.1 ± 0.3 nM; IC50 ([2]; Homo sapiens, NCI/ADR-RES): 360 ± 7.8 nM; MCF7-ADR/MCF7 [2]: 59.01

Question: COc1cc2c(c(OC)c1OC)-c1ccc(SC)c(=O)cc1[C@@H](NC(=O)C(F)(F)C(F)(F)F)CC2 [Compound I, N-deacetyl-N-pentafluoro-propionyl-thiocolchicine] was tested. Which IC50 ([1]; MCF7) did it give?
Answer: 6.2 ± 0.4 nM

Question: And the IC50 ([2]; Homo sapiens, NCI/ADR-RES)?
Answer: 26 ± 2.3 nM

Question: And the MCF7-ADR/MCF7 [2]?
Answer: 4.2

Question: With COc1cc2c(c(OC)c1OC)-c1ccc(SC)c(=O)cc1[C@@H](NC(=O)C(F)(F)C(F)(F)C(F)(F)F)CC2 [Compound IV, N-deacetyl-N-heptafluorobutyroyl-thiocolchicine] as the molecule, how does the IC50 ([1]; MCF7) read?
Answer: 3.2 ± 0.2 nM

Question: And the IC50 ([2]; Homo sapiens, NCI/ADR-RES)?
Answer: 31 ± 1.9 nM

Question: What about the MCF7-ADR/MCF7 [2] of the same molecule?
Answer: 9.7

Question: Which results are given for CCCCCC/C=C/C#CCCCCCCCC(=O)Oc1cc2c(c(OC)c1OC)-c1ccc(SC)c(=O)cc1C(NC(=O)C(F)(F)C(F)(F)F)CC2 (stereo not shown) [Compound II, N-deacetyl-N-pentafluoropropionyl-3-O-ximenoyl-thiocolchicine]?
Answer: IC50 [1]: 5 ± 0.2 nM; IC50 [2]: 11 ± 1.9 nM; MCF7-ADR/MCF7 [2]: 2.2

Question: What does the source list for COc1c(OC2C=CCC2)cc2c(c1OC)-c1ccc(SC)c(=O)cc1[C@@H](NC(=O)C(F)(F)C(F)(F)F)CC2 (stereo partly shown) [Compound III, N-deacetyl-N-pentafluoropropionyl-3-O-demethyl-3-O-cyclopentenyl-thiocolchicine]?
Answer: IC50 ([1]; MCF7): 4.1 ± 0.3 nM; IC50 ([2]; Homo sapiens, NCI/ADR-RES): 7 ± 0.4 nM; MCF7-ADR/MCF7 [2]: 1.7

Question: For COc1cc2c(c(OC)c1OC)-c1ccc(OC)c(=O)cc1[C@@H](NC(C)=O)CC2 [Colchicine, colchicine, reference compound], which MCF7-ADR/MCF7 [2] is on record?
Answer: 25.45
